Assay results taken from article PMC8740755 (Proceedings of the National Academy of Sciences of the …, 2021).

Biological target: WipA (Legionella pneumophila, UniProt Q5ZS02)
Sequence (Q5ZS02 1-520): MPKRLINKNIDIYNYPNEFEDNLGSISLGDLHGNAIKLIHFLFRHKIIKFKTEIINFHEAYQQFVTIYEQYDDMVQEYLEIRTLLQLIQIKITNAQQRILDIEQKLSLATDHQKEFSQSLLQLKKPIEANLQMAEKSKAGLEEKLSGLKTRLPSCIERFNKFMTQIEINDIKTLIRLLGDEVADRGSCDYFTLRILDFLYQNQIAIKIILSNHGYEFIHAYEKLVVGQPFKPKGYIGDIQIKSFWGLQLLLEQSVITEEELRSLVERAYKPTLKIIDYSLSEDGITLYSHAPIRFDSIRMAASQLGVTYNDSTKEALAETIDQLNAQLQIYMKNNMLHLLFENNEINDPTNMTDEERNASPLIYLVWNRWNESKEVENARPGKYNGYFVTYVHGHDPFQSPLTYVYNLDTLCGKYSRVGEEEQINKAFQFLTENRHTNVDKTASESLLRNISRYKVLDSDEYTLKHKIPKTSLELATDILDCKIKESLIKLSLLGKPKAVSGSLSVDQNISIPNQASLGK

O=[N+]([O-])c1ccc(OP(=O)(O)O)cc1 [pNPP]
free phosphate by malachite green assay: exhibited robust activity, and a mutation in its active site abolished such activity
